Ki data for twelve compounds are collected here from US8410166B2, “Fused bicyclic compound” (Mitsubishi Tanabe Pharma Corporation, priority 2007, dated 2013).

One test concerns the target T1, mineralocorticoid receptor (MR) (Rattus norvegicus, UniProt P22199).
T1 construct: the homogenate was centrifuged at 100,000×g for 1 hour to give a supernatant as a kidney cytosol fraction; from tissue; host or cells: kidney cytosol fraction of adrenalectomised male Sprague-Dawley rats
T1 sequence (P22199 1-981): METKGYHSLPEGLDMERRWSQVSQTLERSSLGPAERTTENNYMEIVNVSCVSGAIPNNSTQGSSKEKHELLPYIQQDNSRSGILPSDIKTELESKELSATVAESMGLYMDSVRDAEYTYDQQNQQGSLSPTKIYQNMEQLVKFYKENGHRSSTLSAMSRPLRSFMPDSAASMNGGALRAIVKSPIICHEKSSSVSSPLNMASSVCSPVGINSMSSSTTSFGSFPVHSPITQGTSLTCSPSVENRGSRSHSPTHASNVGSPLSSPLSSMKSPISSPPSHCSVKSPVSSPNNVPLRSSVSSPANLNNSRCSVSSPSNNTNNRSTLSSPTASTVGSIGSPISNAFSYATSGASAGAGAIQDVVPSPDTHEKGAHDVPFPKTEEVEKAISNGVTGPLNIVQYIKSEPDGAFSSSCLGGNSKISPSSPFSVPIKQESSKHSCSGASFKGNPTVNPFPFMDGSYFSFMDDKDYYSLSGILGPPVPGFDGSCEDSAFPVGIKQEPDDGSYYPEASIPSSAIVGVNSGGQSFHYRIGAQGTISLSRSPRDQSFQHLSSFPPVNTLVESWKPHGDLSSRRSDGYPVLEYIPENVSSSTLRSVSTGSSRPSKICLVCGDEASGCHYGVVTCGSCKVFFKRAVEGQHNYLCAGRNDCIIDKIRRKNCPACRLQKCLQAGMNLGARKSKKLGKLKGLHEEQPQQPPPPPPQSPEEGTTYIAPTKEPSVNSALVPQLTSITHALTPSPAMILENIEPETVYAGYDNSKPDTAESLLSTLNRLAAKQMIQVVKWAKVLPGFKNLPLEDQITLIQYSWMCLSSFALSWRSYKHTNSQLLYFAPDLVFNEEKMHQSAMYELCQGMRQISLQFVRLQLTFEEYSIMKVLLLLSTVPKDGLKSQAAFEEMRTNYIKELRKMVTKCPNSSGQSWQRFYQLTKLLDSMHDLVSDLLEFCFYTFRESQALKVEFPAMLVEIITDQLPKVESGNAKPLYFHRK
In words: Aldosterone receptor binding assay (rat kidney cytosol, [3H]aldosterone). Particulars: MR derived from rat kidney, 3H-aldosterone; read-out: Ki values in 3H-aldosterone binding to MR. As to the method:
The compound of the present invention has a high affinity to a mineralocorticoid receptor (MR) of mammals. For example, in a biding assay using a rat MR and ^3H-aldosterone, which was conducted according to a method disclosed in The Journal of Pharmacology and Experimental Therapeutics, 1987; 240: p. […] Accordingly, the compound [I] is useful for treating and/or preventing the diseases associated with MR, e.g., circulatory system disease including hypertension and heart failure etc.
[Aldosterone Receptor Binding Assay]
(1) Preparation of Kidney Cytosol Fraction:
Kidneys derived from post-adrenalectomy Sprague-Dawley male rats (7 weeks old) were homogenized in the following buffer solution and the homogenate was centrifuged at 100,000×g for 1 hour to give a supernatant as a kidney cytosol fraction (protein concentration: 15 mg/mL) for the present biding assay.
Composition of Buffer Solution:
50 mM Tris-HCl (pH 7.5), 250 mM Sucrose, 50 mM Potassium chloride, 3 mM Magnesium chloride, 20 mM Sodium molybdate and 1 mM Mercaptoethanol
A mixture of 5 μL of a solution of each test compound in dimethylsulfoxide, 200 μL of kidney cytosol fraction, 50 μL of physiological saline (or 50 μL of unlabeled aldosterone solution (final concentration: 1 μM) and 50 μL of [^3H] aldosterone solution (ca. 2 nM) was incubated in a test tube at 4° C. overnight. Thereto was added 100 μL of dextrane-coated charcoal/10 mM Tris-HCl buffer and the mixture was incubated at 4° C. for 30 minutes. The reaction mixture was centrifuged at 3000 rpm for 10 minutes and to the supernatant (150 μL) was added 5 mL of a scintillater (Clearsol I, Nakarai Tesque). The radioactivity was measured by a liquid scintilation counter (TRI CARB 2200C A, Packard). The concentration of each test compound required to produce 50% inhibition of aldosterone-binding to receptors (IC50; μM) was calculated on the basis of the above quantitated radioactivity. Moreover, the dissociation constant (Ki) of each test compound was calculated on Cheng and Prusoff s equation (Ki=IC50/(1+[L]/Kd), wherein [L] is [^3H]aldosterone concentration and Kd is the affinity constant of aldosterone).
Consider `CC1(C)N=C(c2ccc(F)cc2)c2c(F)cc(N)cc2O1` [5-fluoro-4-(4-fluorophenyl)-2,2-dimethyl-2H-1,3-benzoxazin-7-amine], for which the inhibition constant (Ki) (usually a measure of affinity in units of concentration, obtained from inhibition or displacement) is less than 10000 nM.

As to `CC1(C)Oc2cc(N)ccc2C(c2ccc(F)cc2)=C1C#N` [7-amino-4-(4-fluorophenyl)-2,2-dimethyl-2H-chromen-3-carbonitrile], the inhibitory constant (Ki) was less than 10000 nM.

Turning to `CC1(C)N=C(c2ccc(Cl)cc2)c2ccc(NS(C)(=O)=O)cc2O1` [Example 1, N-[4-(4-chlorophenyl)-2.2-dimethyl-2H-1,3-benzoxazin-7-yl]methanesulfonamide], the Ki is less than 10000 nM.

For `CC1=C(c2ccc(F)cc2)c2ccc(NS(C)(=O)=O)cc2OC1(C)C` [Example 6, N-[4-(4-fluorophenyl)-2,2,3-trimethyl-2H-chromen-7-yl]methanesulfonamide], the Ki was less than 10000 nM.

Still in this test, the particulars now being: [3H]aldosterone binding to MR of rat kidney cytosol fraction; Ki by Cheng-Prusoff; read-out: Ki.
For `CC1(C)N=C(c2ccc(Cl)cc2)c2ccc(NS(C)(=O)=O)cc2O1` [Example 1, N-[4-(4-chlorophenyl)-2.2-dimethyl-2H-1,3-benzoxazin-7-yl]methanesulfonamide], the inhibition constant (Ki) is less than 500 nM.

In the case of `CC1=C(c2ccc(F)cc2)c2ccc(NS(C)(=O)=O)cc2OC1(C)C` [Example 6, N-[4-(4-fluorophenyl)-2,2,3-trimethyl-2H-chromen-7-yl]methanesulfonamide], the Ki was less than 500 nM.

Consider `CC1(C)CC(c2ccc(F)cc2)c2ccc(NS(C)(=O)=O)cc2O1` (centres unmarked) [Example 8, N-[4-(4-fluorophenyl)-2,2-dimethyl-3,4-dihydro-2H-chromen-7-yl]methanesulfonamide], for which the Ki was less than 500 nM.

For the compound `CC1(C)N=C(c2ccccc2)c2ccc(NS(C)(=O)=O)cc2O1` [Example 10], the Ki was in the range of 500 to 1000 nM.

In the case of `CC1(C)N=C(c2csc3ccccc23)c2ccc(NS(C)(=O)=O)cc2O1` [Example 26], the Ki is less than 500 nM.

Consider `Cc1cc(Cl)ccc1C1=CC(C)(C)Oc2cc(NS(C)(=O)=O)ccc21` [Example 42], for which the Ki was less than 500 nM.

For `Cc1cc(NS(C)(=O)=O)cc2c1C(c1ccc(F)cc1)=NC(C)(C)O2` [Example 47], the Ki is less than 500 nM.

Regarding `CC1(C)Oc2cc(NS(C)(=O)=O)ccc2C(c2ccc(Cl)c(F)c2)=C1C#N` [Example 53], the Ki is less than 500 nM.

For `CS(=O)(=O)Nc1ccc2c(c1)OC1(CCCC1)C(C#N)=C2c1ccc(F)cc1` [Example 55(2) compound (a), N-[3-cyano-4-(4-fluorophenyl)spiro[chromen-2′,1′-cyclopentan]-7-yl]methanesulfonamide], the Ki was less than 500 nM.

With `CNS(=O)(=O)c1ccc2c(c1)OC(C)(C)N=C2c1ccc(F)cc1` [Example 61, N,2,2-trimethyl-4-(4-fluorophenyl)-2H-1,3-benzoxazin-7-sulfonamide], the inhibition constant Ki lay in the range of 500 to 1000 nM.
